Nine compounds from ChEMBL document CHEMBL1201862, “PubChem BioAssay data set” (2004) can be followed below.

Test systems include A498; A549; ACHN; COLO 205; Hs-578T; LOX IMVI; MCF7; MDA-MB-231; MDA-MB-435; Malme-3M; NCI/ADR-RES; PC-3; RPMI-8226; SN12C; SW-620; U-251; UACC-257; NCI-H522; T47D.
What all share (experiment): DTP human tumour cell line panel, 48 h

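Interpolation was linear, between the two tested concentrations surrounding the appropriate level; five concentrations were tested over 48 hours in 96-well plates. GI50 is the concentration that inhibits growth by half.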 Activity calls are given as the source filed them. Cut-off read from the data, not from the text of the source: active = GI50 up to about 1.1 µM and inactive = higher.

As a reminder, the GI50 is the concentration at which growth is held to half of that of the control. Consider `CC(C)C1=C(Cc2ccccc2)C(=O)O/C1=C\c1cc(Cl)c(O)c(Cl)c1`, for which the GI50 in the assay on A498 was 23.7 µM (inactive); in the assay with A549 it was 21.6 µM (inactive); in the assay on ACHN, 17.3 µM (inactive); with COLO 205 it was 17.4 µM (inactive); with Hs-578T, 21.8 µM (inactive); in the assay on LOX IMVI, 17.4 µM (inactive). Further, the GI50 in the assay on MCF7 was 27.9 µM (inactive); in the assay on MDA-MB-231, 16.9 µM (inactive); in the assay on MDA-MB-435, 17.3 µM (inactive); in the assay with Malme-3M, 16.7 µM (inactive); in the assay on NCI/ADR-RES, 23.3 µM (inactive); in the assay on PC-3, 16.9 µM (inactive). Moreover, the GI50 in the assay with RPMI-8226 was 17.3 µM (inactive); with SN12C, 17.2 µM (inactive); with SW-620 it was 23.1 µM (inactive); with U-251, 17.7 µM (inactive); in the assay on UACC-257 it was 16.9 µM (inactive).
Take `O=C(CCN1CCCC1)c1ccc(Oc2ccc(F)cc2)cc1`: the GI50 with A549 was > 100 µM (inactive); in the assay on ACHN it was > 100 µM (inactive); with COLO 205, 23 µM (inactive); in the assay with Hs-578T it was 30.1 µM (inactive); with LOX IMVI, 30.5 µM (inactive); in the assay on MCF7, 15.6 µM (inactive). Also, the GI50 in the assay on MDA-MB-231 is > 100 µM (inactive); in the assay with MDA-MB-435, > 100 µM (inactive); with Malme-3M, 27.8 µM (inactive); with NCI/ADR-RES, > 100 µM (inactive); with PC-3, 38.5 µM (inactive); in the assay on SN12C, 97.1 µM (inactive). The GI50 with SW-620 is 78.7 µM (inactive); with U-251, > 100 µM (inactive); with UACC-257, 43.1 µM (inactive).
`COC1(OC)CC(CO)(CNc2nc(N)nc(Cl)c2C=O)C1`: the GI50 in the assay with A498 is > 100 µM (inactive); in the assay with A549, 59 µM (inactive); in the assay with ACHN, 3.48 µM (inactive); in the assay on COLO 205, > 100 µM (inactive); in the assay with Hs-578T it was 39.8 µM (inactive); with LOX IMVI, 18.5 µM (inactive). Also, the GI50 with MCF7 was 57.7 µM (inactive); in the assay with MDA-MB-231 it was 20.8 µM (inactive); in the assay with MDA-MB-435 it was 25.8 µM (inactive); in the assay on Malme-3M, 81.7 µM (inactive); in the assay on NCI-H522, 1.99 µM (inactive); in the assay on NCI/ADR-RES, 31 µM (inactive). Also, the GI50 in the assay on PC-3 was 24 µM (inactive); in the assay on RPMI-8226, > 100 µM (inactive); in the assay on SN12C, 28.4 µM (inactive); with SW-620, 53.2 µM (inactive); with U-251, 34.6 µM (inactive); in the assay with UACC-257 it was 27 µM (inactive).
As for `Clc1ccc(CCN[C@H]2CCCC[C@H]2N2CCCC2)cc1Cl`, the GI50 with A498 was 15.8 µM (inactive); in the assay with A549 it was 26.4 µM (inactive); in the assay on ACHN, 38.6 µM (inactive); in the assay on COLO 205, 13.6 µM (inactive); in the assay on Hs-578T it was 39.6 µM (inactive); in the assay with LOX IMVI, 16 µM (inactive). Besides, the GI50 in the assay on MCF7 was 16.1 µM (inactive); with MDA-MB-231, 25.6 µM (inactive); in the assay on MDA-MB-435 it was 18.5 µM (inactive); in the assay with Malme-3M, 15.9 µM (inactive); in the assay on NCI-H522 it was 17.3 µM (inactive); in the assay with NCI/ADR-RES, 21.4 µM (inactive). Further, the GI50 is 27.9 µM (inactive) in the assay on PC-3; 25.2 µM (inactive) with RPMI-8226; 20.2 µM (inactive) in the assay with SN12C; 34 µM (inactive) in the assay with SW-620; 43.7 µM (inactive) with U-251; 12 µM (inactive) with UACC-257.
For `CC1=C(/C=C/C(C)=C/C=C/C(C)=C/CO)C(C)(C)CCC1` [RETINOL], the GI50 with A498 is 18.3 µM (inactive); in the assay on A549, 19.1 µM (inactive); in the assay with ACHN it was 29.4 µM (inactive); in the assay on COLO 205, 19.1 µM (inactive); in the assay on LOX IMVI it was 24.6 µM (inactive); with MDA-MB-231, 29 µM (inactive). Further, the GI50 was 22.1 µM (inactive) with MDA-MB-435; 11.1 µM (inactive) in the assay on Malme-3M; 25.5 µM (inactive) in the assay with NCI-H522; 19.5 µM (inactive) with NCI/ADR-RES; 38.9 µM (inactive) in the assay on PC-3; 21.7 µM (inactive) in the assay with SN12C. Moreover, the GI50 in the assay on SW-620 was 19.4 µM (inactive); with T47D it was 14.5 µM (inactive); in the assay with U-251, 21.2 µM (inactive); with UACC-257, 27.6 µM (inactive).
Regarding `COc1ccc(/C=C(\C#N)c2ccccn2)cc1OC`, the GI50 was 41.5 µM (inactive) with A549; 55.8 µM (inactive) with ACHN; 69.2 µM (inactive) in the assay on COLO 205; 17.9 µM (inactive) in the assay with MCF7; 46.8 µM (inactive) in the assay on Malme-3M; 39.8 µM (inactive) in the assay on NCI-H522. In addition, the GI50 was 20.4 µM (inactive) with NCI/ADR-RES; 22.8 µM (inactive) with PC-3; 45.7 µM (inactive) in the assay with RPMI-8226; 53 µM (inactive) with SN12C; 56.1 µM (inactive) in the assay on SW-620; 16.3 µM (inactive) with U-251. Moreover, the GI50 in the assay on UACC-257 was > 100 µM (inactive).
Consider `NS(=O)(=O)c1cc(S(N)(=O)=O)c(NC(=O)N(c2ccccc2)c2ccccc2)c(Cl)c1Cl`, for which the GI50 is 31.8 µM (inactive) with A549; 23.2 µM (inactive) with ACHN; 22.9 µM (inactive) in the assay on COLO 205; 17.2 µM (inactive) in the assay with Hs-578T; 12.5 µM (inactive) in the assay on LOX IMVI; 35 µM (inactive) in the assay with MCF7. Besides, the GI50 is 33 µM (inactive) in the assay on MDA-MB-231; 21.5 µM (inactive) in the assay with MDA-MB-435; 13.2 µM (inactive) with NCI-H522; 19 µM (inactive) in the assay with NCI/ADR-RES; 24 µM (inactive) in the assay on PC-3; 15.3 µM (inactive) with RPMI-8226. Also, the GI50 with SN12C was 19.5 µM (inactive); in the assay with SW-620 it was 29.9 µM (inactive); with U-251, 24.3 µM (inactive); in the assay with UACC-257, 10.4 µM (inactive).
In the case of `COc1ccc(NC2Oc3cc4c(cc3C(c3cc(OC)c(OC)c(OC)c3)C2C)OCO4)cc1` (configuration not stated), the GI50 with A498 is 0.316 µM (active); in the assay on A549, 0.685 µM (active); with ACHN it was 0.897 µM (active); in the assay with COLO 205 it was 0.386 µM (active); in the assay with Hs-578T it was 0.398 µM (active); with LOX IMVI, 0.476 µM (active). Further, the GI50 in the assay on MCF7 is 0.394 µM (active); in the assay on MDA-MB-231, 0.881 µM (active); in the assay with MDA-MB-435, 0.0991 µM (active); with Malme-3M, 0.365 µM (active); in the assay with NCI-H522, 0.311 µM (active); in the assay on PC-3, 0.586 µM (active). Besides, the GI50 was 0.525 µM (active) in the assay on RPMI-8226; 0.541 µM (active) with SN12C; 0.428 µM (active) with SW-620; 0.379 µM (active) in the assay on U-251; 0.605 µM (active) in the assay on UACC-257.
For the compound `O=C(OCC(OC(=O)c1ccccc1)C1CC(C2(O)CCCCC2)C(=O)O1)c1ccccc1` (configuration not stated), the GI50 with A498 is > 25 µM (inactive); with A549 it was > 25 µM (inactive); in the assay on ACHN, > 25 µM (inactive); in the assay on COLO 205, > 25 µM (inactive); in the assay on LOX IMVI, > 25 µM (inactive); in the assay on MCF7, 21 µM (inactive). Besides, the GI50 with MDA-MB-231, in the assay with MDA-MB-435, with Malme-3M, in the assay on NCI-H522, in the assay on NCI/ADR-RES and with PC-3 was > 25 µM (inactive) each time. Further, the GI50 with RPMI-8226, with SN12C, in the assay with SW-620, in the assay with U-251 and in the assay with UACC-257 was > 25 µM (inactive) each time.
